Laboratory results from ChEMBL document CHEMBL3045542, “A quantitative structure-activity relationship study of herbicidal analogues of alpha-hydroxy-substituted 3-benzylidenepyrrolidene-2,4-diones” (2006).

Experiments:
Assay type in all cases: functional
[1] = test system: Echinochloa crus-galli; experiment: Herbicidal activity against Echinochloa crus-galli (barnyard grass) assessed as inhibition of plant growth at 10 ug/mL by cup test
[2] = test system: Digitaria sanguinalis; experiment: Herbicidal activity against Digitaria sanguinalis (hairy crabgrass) assessed as inhibition of plant growth at 750 g/ha applied as pre-emergence treatment; details: for inhibition at 750 g/ha: Digitaria sanguinalis, pre-emergence
[3] = test system: Echinochloa crus-galli; experiment: Herbicidal activity against Echinochloa crus-galli (barnyard grass) assessed as inhibition of plant growth at 187.5 g/ha applied as pre-emergence treatment; details: for inhibition at 187.5 g/ha: Echinochloa crus-galli, pre-emergence
[4] = test system: Echinochloa crus-galli; experiment: Herbicidal activity against Echinochloa crus-galli (barnyard grass) assessed as inhibition of plant growth at 750 g/ha applied as pre-emergence treatment; details: for inhibition at 750 g/ha: Echinochloa crus-galli, pre-emergence
[5] = test system: Digitaria sanguinalis; experiment: Herbicidal activity against Digitaria sanguinalis (hairy crabgrass) assessed as inhibition of plant growth at 93.75 g/ha applied as pre-emergence treatment; details: for inhibition at 93.75 g/ha: Digitaria sanguinalis, pre-emergence
[6] = test system: Echinochloa crus-galli; experiment: Herbicidal activity against Echinochloa crus-galli (barnyard grass) assessed as inhibition of plant growth at 375 g/ha applied as pre-emergence treatment; details: for inhibition at 375 g/ha: Echinochloa crus-galli, pre-emergence
[7] = test system: Echinochloa crus-galli; experiment: Herbicidal activity against Echinochloa crus-galli (barnyard grass) assessed as inhibition of plant growth at 93.75 g/ha applied as pre-emergence treatment; details: for inhibition at 93.75 g/ha: Echinochloa crus-galli, pre-emergence
[8] = test system: Digitaria sanguinalis; experiment: Herbicidal activity against Digitaria sanguinalis (hairy crabgrass) assessed as inhibition of plant growth at 187.5 g/ha applied as pre-emergence treatment; details: for inhibition at 187.5 g/ha: Digitaria sanguinalis, pre-emergence
[9] = test system: Digitaria sanguinalis; experiment: Herbicidal activity against Digitaria sanguinalis (hairy crabgrass) assessed as inhibition of plant growth at 375 g/ha applied as pre-emergence treatment; details: for inhibition at 375 g/ha: Digitaria sanguinalis, pre-emergence
[10] = tested as the Zn salt or complex

CCC(C)N1CC(=O)/C(=C(/O)c2ccc(OC)cc2)C1=O (centres undefined)
inhibition at 10 µg/mL [1]: 64%

CCOc1ccc(/C([O-])=C2\C(=O)CN(C(C)C)C2=O)cc1.CCOc1ccc(/C([O-])=C2\C(=O)CN(C(C)C)C2=O)cc1.[Zn+2]
inhibition at 750 g/ha [2, 10]: 100%
inhibition at 187.5 g/ha [3, 10]: 96%
inhibition at 750 g/ha [4, 10]: 100%
inhibition at 93.75 g/ha [5, 10]: 8%
inhibition at 375 g/ha [6, 10]: 100%
inhibition (INH) [7]: 57%
inhibition at 187.5 g/ha [8, 10]: 64%
inhibition (INH) [9]: 100%

COc1cc(OC(C)C)ccc1/C(O)=C1\C(=O)CN(C(C)C)C1=O
inhibition at 10 µg/mL [1]: 57%

Cc1ccccc1/C(O)=C1\C(=O)CN(C(C)(C)C)C1=O
inhibition at 10 µg/mL [1]: 64%

CC(C)N1CC(=O)/C(=C(/O)c2ccc(OCc3ccccc3)cc2)C1=O
inhibition at 10 µg/mL [1]: 39%

CCC(C)N1CC(=O)/C(=C(/O)c2cccc(Oc3ccccc3)c2)C1=O (centres undefined)
inhibition at 10 µg/mL [1]: 58%

CC(C)Oc1ccc(/C(O)=C2\C(=O)CN(C(C)C)C2=O)cc1
inhibition at 10 µg/mL [1]: 79%

CCC(C)N1CC(=O)/C(=C(/O)c2cc(C)cc(C)c2)C1=O (centres undefined)
inhibition at 10 µg/mL [1]: 9%

Cc1cccc(/C(O)=C2\C(=O)CN(Cc3ccccc3)C2=O)c1
inhibition at 10 µg/mL [1]: 12%

CCCCOc1ccc(/C(O)=C2\C(=O)CN(C(C)CC)C2=O)cc1 (centres undefined)
inhibition at 10 µg/mL [1]: 28%

CCOc1ccc(C(=O)C2=C(O)N(C(C)C)CCC2=O)cc1
inhibition at 10 µg/mL [1]: 15%

CCC(C)N1CC(=O)/C(=C(/O)c2ccc(OC)c(OC)c2)C1=O (centres undefined)
inhibition at 10 µg/mL [1]: 9%

COc1ccc(C(=O)C2=C(O)N(C(C)C)CCC2=O)c(OC)c1
inhibition at 10 µg/mL [1]: 6%

COc1ccc(/C(O)=C2\C(=O)C(C)N(C(C)C)C2=O)cc1 (centres undefined)
inhibition at 10 µg/mL [1]: 4%

COc1ccc(C/C(O)=C2/C(=O)CN(C(C)C)C2=O)cc1
inhibition at 10 µg/mL [1]: 5%

CCC(C)N1CC(=O)/C(=C(/O)c2ccc(OC)cc2OC)C1=O (centres undefined)
inhibition at 750 g/ha [2]: 80%
inhibition at 187.5 g/ha [3]: 14%
inhibition at 750 g/ha [4]: 100%
inhibition at 93.75 g/ha [5]: 0%
inhibition at 10 µg/mL [1]: 79%
inhibition at 375 g/ha [6]: 76%
inhibition at 93.75 g/ha [7]: 13%
inhibition at 187.5 g/ha [8]: 4%
inhibition at 375 g/ha [9]: 63%

Cc1cc(C)cc(/C(O)=C2\C(=O)CN(C(C)C)C2=O)c1
inhibition at 10 µg/mL [1]: 22%

Cc1ccc(/C(O)=C2\C(=O)CN(Cc3ccccc3)C2=O)cc1
inhibition at 10 µg/mL [1]: 8%

COc1ccc(/C([O-])=C2\C(=O)CN(C(C)C)C2=O)c(OC)c1.[Na+]
inhibition (INH) [2]: 100%
inhibition (INH) [3]: 100%
inhibition (INH) [4]: 100%
inhibition (INH) [5]: 10%
inhibition (INH) [6]: 100%
inhibition (INH) [7]: 73%
inhibition (INH) [8]: 90%
inhibition (INH) [9]: 100%

Cc1cccc(/C(O)=C2\C(=O)CN(C)C2=O)c1
inhibition at 10 µg/mL [1]: 25%

O=C1CN(C2CC2)C(=O)/C1=C(\O)c1cccc(Oc2ccccc2)c1
inhibition at 10 µg/mL [1]: 58%

Cc1ccccc1/C(O)=C1\C(=O)CN(Cc2ccccc2)C1=O
inhibition at 10 µg/mL [1]: 15%

CC(C)Oc1cccc(/C(O)=C2\C(=O)CN(C(C)C)C2=O)c1
inhibition at 10 µg/mL [1]: 9%

COc1ccccc1/C(O)=C1\C(=O)CN(C(C)(C)C)C1=O
inhibition at 10 µg/mL [1]: 75%

C=CCOc1ccc(/C(O)=C2\C(=O)C(C)N(C(C)C)C2=O)c(OC)c1 (centres undefined)
inhibition at 10 µg/mL [1]: 44%

COc1ccc(/C(O)=C2\C(=O)CN(C(C)(C)C)C2=O)cc1
inhibition at 187.5 g/ha [3]: 0%
inhibition at 750 g/ha [4]: 14%
inhibition at 10 µg/mL [1]: 10%
inhibition at 375 g/ha [6]: 0%
inhibition at 93.75 g/ha [7]: 0%

Cc1ccc(/C(O)=C2\C(=O)CN(C(C)(C)C)C2=O)cc1
inhibition at 10 µg/mL [1]: 36%

C=CCOc1ccc(/C(O)=C2\C(=O)CN(C(C)C)C2=O)c(OC)c1
inhibition at 10 µg/mL [1]: 77%

CCC(C)N1CC(=O)/C(=C(/O)c2ccc(OC(C)C)cc2OC)C1=O (centres undefined)
inhibition at 10 µg/mL [1]: 33%

Cc1ccccc1/C(O)=C1\C(=O)CN(C(C)C)C1=O
inhibition at 10 µg/mL [1]: 77%

CS(=O)(=O)c1ccc(C(=O)C2C(=O)CCCC2=O)c(Cl)c1 [SULCOTRIONE]
inhibition at 750 g/ha [2]: 100%
inhibition at 187.5 g/ha [3]: 93%
inhibition at 750 g/ha [4]: 100%
inhibition at 93.75 g/ha [5]: 100%
inhibition at 375 g/ha [6]: 100%
inhibition at 93.75 g/ha [7]: 70%
inhibition at 187.5 g/ha [8]: 100%
inhibition at 375 g/ha [9]: 100%

Cc1ccc(/C(O)=C2\C(=O)CN(C(C)C)C2=O)c(C)c1
inhibition at 10 µg/mL [1]: 74%

COc1ccc(/C(O)=C2\C(=O)CN(C(C)C)C2=O)cc1
inhibition at 10 µg/mL [1]: 80%

CCCc1ccc(/C(O)=C2\C(=O)CN(C(C)CC)C2=O)cc1 (centres undefined)
inhibition at 10 µg/mL [1]: 18%

COc1ccc(/C(O)=C2\C(=O)C(C)N(C(C)C)C2=O)c(OC)c1 (centres undefined)
inhibition at 10 µg/mL [1]: 25%

CC(C)N1CC(=O)/C(=C(/O)c2ccc(Cl)cc2)C1=O
inhibition at 10 µg/mL [1]: 25%
